Reference: ChEMBL document CHEMBL6134803, “ZLDI-8 facilitates pexophagy by ROS-mediated activation of TFEB and ATM in HeLa cells” (Bioorg Med Chem Lett, 2025)
Activity calls are given as the source filed them.

Tests used:
Assay type in all cases: functional, cell-based
HeLa [1] = test: Induction of autophagy in human HeLa cells assessed as reduction in peroxisomes number in endoplasmic reticulum at 5 uM incubated for 48 hrs in presence of P4HB antibody by fluorescence microscopic analysis
HeLa [2] = test: Induction of pexophagy in wild-type human HeLa cells assessed as reduction in peroxisomes at 5 uM incubated for 48 hrs by immunostaining based analysis
HeLa [3] = test: Induction of pexophagy in human HeLa cells assessed as reduction in peroxisomes at 5 uM incubated for 48 hrs treated with Bafilomycin A1 by immunostaining based analysis
HeLa [4] = test: Induction of pexophagy in human HeLa cells expressing HyPer-PTS1 assessed as increase in peroxisomal ROS levels at 5 uM incubated for 48 hrs in presence of ROS scavenger NAC by fluorescence based analysis
HeLa [5] = test: Induction of pexophagy in wild-type human HeLa cells assessed as decrease in ABCD3 protein expression at 5 uM incubated for 48 hrs by Western blot analysis
HeLa [6] = test: Induction of pexophagy in human HeLa cells assessed as increase in ROS levels at 5 uM incubated for 48 hrs in presence of ROS scavenger NAC by DCFH-DA staining based assay
HeLa [7] = test: Induction of TFEB nuclear translocation in human HeLa cells assessed as decrease in TFEB phoshorylation at 5 uM cotreated with ROS scavenger NAC measured at 48 hrs by Western blot analysis
HeLa [8] = test: Induction of pexophagy in ATG5 knockout human HeLa cells assessed as decrease in LC3I protein expression at 5 uM incubated for 48 hrs by Western blot analysis
HeLa [9] = test: Induction of TFEB nuclear translocation in human HeLa cells expressing EGFP-TFEB at 5 uM measured at 48 hrs in presence of ROS scavenger NAC by fluorescence microscopic analysis
HeLa [10] = test: Induction of pexophagy in ATG5 knockout human HeLa cells assessed as […] in LC3II protein expression at 5 uM incubated for 48 hrs by Western blot analysis
TERT-RPE1 = test: Induction of pexophagy in human TERT-RPE1 cells expressing mRFP-EGFP-SKL assessed as increase in red-only puncta at 5 uM incubated for 48 hrs by fluorescence microscopic analysis
HeLa [11] = test: Induction of pexophagy in human HeLa cells assessed as increase in ATM phosphorylation at serine 1981 residue at 5 uM cotreated with ROS scavenger NAC measured at 48 hrs by Western blot analysis
HeLa [12] = test: Induction of pexophagy in human HeLa cells expressing HyPer-PTS1 assessed as reduction in peroxisome numbers at 5 uM incubated for 48 hrs by immunostaining based analysis
HeLa [13] = test: Induction of autophagic flux in human HeLa cells at 5 uM preincubated for 36 hrs followed by addition of Bafilomycin A1 and measured after 12 hrs by Western blot analysis; conditions: time 48.0 hrs
HeLa [14] = test: Induction of pexophagy in human HeLa cells expressing HyPer-PTS1 assessed as reduction in peroxisome numbers at 5 uM incubated for 48 hrs in presence of ROS scavenger NAC by immunostaining based analysis
HeLa [15] = test: Induction of autophagy in human HeLa cells assessed as reduction in peroxisomes number golgi apparatus at 5 uM incubated for 48 hrs in presence of FTCD antibody by fluorescence microscopic analysis
HeLa [16] = test: Induction of pexophagy in wild-type human HeLa cells assessed as […] in LC3II protein expression at 5 uM incubated for 48 hrs by Western blot analysis
HeLa [17] = test: Induction of autophagy in human HeLa cells assessed as reduction in peroxisomes number in mitochondria at 5 uM incubated for 48 hrs in presence of TOMM20 antibody by fluorescence microscopic analysis
HeLa [18] = test: Induction of pexophagy in human HeLa cells assessed as increase in ATM phosphorylation at serine 1981 residue at 5 uM measured at 48 hrs by Western blot analysis
HeLa [19] = test: Induction of pexophagy in human HeLa cells at 5 uM cotreated with KU55933 measured at 48 hrs by immunostaining based analysis
HeLa [20] = test: Induction of pexophagy in ATG5 knockout human HeLa cells assessed as reduction in peroxisomes at 5 uM incubated for 48 hrs by immunostaining based analysis
HeLa [21] = test: Induction of pexophagy in wild-type human HeLa cells assessed as decrease in LC3I protein expression at 5 uM incubated for 48 hrs by Western blot analysis
HeLa [22] = test: Induction of pexophagy in human HeLa cells at 5 uM measured at 48 hrs by immunostaining based analysis
HeLa [23] = test: Induction of pexophagy in ATG5 knockout human HeLa cells assessed as decrease in ABCD3 protein expression at 5 uM incubated for 48 hrs by Western blot analysis
HeLa [24] = test: Induction of pexophagy in human HeLa cells assessed as reduction in peroxisome numbers at 5 uM incubated for 48 hrs in presence of anti-ABCD3 antibody by immunostaining based analysis
HeLa [25] = test: Induction of TFEB nuclear translocation in human HeLa cells assessed as decrease in TFEB phoshorylation at 5 uM measured at 48 hrs by Western blot analysis

Measured: Activity

Cc1ccc(OCCn2c(C)c(C=C3C(=O)NC(=S)NC3=O)c3ccccc32)c(C)c1
inactive: HeLa [7] | HeLa [8] | HeLa [10] | HeLa [11] | HeLa [14] | HeLa [20] | HeLa [23]
active: all other assays above
